Source: ChEMBL document CHEMBL1130526, “Amide surrogates of matrix metalloproteinase inhibitors: Urea and sulfonamide mimics” (Bioorg Med Chem Lett, 1997)

Key:
[1] = target: 72 kDa type IV collagenase (Homo sapiens, UniProt P08253); experiment: Inhibition of Matrix metalloprotease-2 (MMP-2)
[2] = target: Matrix metalloproteinase-9 (Homo sapiens, UniProt P14780); experiment: Inhibition of Matrix metalloprotease-9
[3] = target: T1, Stromelysin-1 (Homo sapiens, UniProt P08254); experiment: Inhibition of Matrix metalloprotease-3 (MMP-3)
Target sequence in this assay (P08254 whole entry): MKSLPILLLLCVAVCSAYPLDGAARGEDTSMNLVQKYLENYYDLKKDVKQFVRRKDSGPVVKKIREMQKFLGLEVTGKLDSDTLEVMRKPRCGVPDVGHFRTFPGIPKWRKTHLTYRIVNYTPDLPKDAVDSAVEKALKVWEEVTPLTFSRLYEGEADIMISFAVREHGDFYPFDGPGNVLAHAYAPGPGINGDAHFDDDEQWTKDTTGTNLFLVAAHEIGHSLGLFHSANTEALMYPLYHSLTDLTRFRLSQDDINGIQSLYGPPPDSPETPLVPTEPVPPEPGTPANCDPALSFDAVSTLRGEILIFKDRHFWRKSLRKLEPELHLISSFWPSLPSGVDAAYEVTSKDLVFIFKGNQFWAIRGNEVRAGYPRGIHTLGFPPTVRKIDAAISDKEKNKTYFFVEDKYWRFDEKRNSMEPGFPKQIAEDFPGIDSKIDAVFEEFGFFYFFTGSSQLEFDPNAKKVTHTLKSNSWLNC

[4] = target: T2, Interstitial collagenase (Homo sapiens, UniProt P03956); experiment: Inhibition of Matrix metalloprotease-1 (MMP-1)
T2 sequence (P03956 whole entry): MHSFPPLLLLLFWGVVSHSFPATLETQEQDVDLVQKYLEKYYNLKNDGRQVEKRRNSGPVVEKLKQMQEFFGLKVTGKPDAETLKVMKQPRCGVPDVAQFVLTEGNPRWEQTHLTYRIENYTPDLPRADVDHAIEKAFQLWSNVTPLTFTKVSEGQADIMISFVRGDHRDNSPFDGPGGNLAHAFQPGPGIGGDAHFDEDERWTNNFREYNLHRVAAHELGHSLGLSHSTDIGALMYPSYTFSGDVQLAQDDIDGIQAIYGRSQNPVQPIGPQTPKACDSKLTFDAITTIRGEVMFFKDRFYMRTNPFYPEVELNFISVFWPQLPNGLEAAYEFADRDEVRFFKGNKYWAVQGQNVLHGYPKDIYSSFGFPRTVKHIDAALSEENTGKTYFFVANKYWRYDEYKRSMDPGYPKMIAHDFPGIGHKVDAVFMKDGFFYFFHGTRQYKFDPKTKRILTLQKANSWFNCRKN

[5] = target: T1, Stromelysin-1; experiment: Inhibition of Matrix metalloprotease-3 (MMP-3) at 50 uM
Target sequence in this assay (P08254 100-477 limits assumed): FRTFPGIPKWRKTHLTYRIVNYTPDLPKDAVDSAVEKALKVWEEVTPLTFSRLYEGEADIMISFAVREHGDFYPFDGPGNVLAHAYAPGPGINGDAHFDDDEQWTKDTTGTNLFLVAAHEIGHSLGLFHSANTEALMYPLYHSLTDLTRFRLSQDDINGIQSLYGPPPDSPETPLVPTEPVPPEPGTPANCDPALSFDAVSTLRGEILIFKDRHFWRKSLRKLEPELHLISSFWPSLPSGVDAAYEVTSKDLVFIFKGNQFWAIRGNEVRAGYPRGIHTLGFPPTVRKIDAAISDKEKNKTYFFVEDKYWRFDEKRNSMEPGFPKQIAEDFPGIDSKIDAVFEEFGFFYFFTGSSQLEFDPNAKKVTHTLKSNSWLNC

Chain of Matrix metalloproteinase-9 (P14780 whole entry): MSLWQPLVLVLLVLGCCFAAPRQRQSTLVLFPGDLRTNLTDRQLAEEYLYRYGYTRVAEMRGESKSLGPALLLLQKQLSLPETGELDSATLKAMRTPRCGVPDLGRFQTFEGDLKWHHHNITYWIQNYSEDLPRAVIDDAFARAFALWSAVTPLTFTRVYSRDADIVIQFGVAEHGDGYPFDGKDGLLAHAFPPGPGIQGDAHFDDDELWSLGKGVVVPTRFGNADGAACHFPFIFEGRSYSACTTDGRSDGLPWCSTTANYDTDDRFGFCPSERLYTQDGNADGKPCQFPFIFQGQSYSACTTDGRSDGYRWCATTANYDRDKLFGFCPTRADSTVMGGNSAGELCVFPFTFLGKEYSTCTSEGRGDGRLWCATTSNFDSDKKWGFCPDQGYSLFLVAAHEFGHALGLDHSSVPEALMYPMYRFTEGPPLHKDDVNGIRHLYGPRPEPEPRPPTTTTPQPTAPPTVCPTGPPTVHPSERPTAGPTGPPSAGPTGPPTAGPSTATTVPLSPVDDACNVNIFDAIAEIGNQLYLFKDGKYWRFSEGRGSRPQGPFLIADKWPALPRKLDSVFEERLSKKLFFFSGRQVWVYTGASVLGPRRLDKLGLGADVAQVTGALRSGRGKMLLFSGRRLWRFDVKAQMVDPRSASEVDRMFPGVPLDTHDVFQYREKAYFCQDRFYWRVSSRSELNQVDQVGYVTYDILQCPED
Chain of 72 kDa type IV collagenase (P08253 whole entry): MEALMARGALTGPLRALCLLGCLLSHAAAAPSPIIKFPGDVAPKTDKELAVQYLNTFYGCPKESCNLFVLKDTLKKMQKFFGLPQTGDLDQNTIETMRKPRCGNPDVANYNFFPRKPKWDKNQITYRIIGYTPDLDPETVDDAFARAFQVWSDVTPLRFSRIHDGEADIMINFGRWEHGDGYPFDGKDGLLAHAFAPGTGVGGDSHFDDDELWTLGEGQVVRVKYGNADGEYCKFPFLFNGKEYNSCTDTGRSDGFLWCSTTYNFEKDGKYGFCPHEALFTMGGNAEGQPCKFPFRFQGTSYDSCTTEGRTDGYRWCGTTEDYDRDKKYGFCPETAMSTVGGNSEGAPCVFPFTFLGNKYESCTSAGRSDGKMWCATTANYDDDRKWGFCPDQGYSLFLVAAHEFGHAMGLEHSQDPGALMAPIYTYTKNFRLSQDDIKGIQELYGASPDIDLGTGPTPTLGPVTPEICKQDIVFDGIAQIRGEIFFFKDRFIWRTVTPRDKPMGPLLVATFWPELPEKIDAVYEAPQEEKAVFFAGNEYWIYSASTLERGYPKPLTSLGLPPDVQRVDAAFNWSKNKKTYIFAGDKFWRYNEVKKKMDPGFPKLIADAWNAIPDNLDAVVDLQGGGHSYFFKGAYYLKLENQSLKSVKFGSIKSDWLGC

Compound	Ki [1] [nM]	Ki [2] [nM]	Ki [3] [nM]	Ki [4] [nM]	inhibition [5] [%]
CNC(=O)[C@H](Cc1ccc(OC)cc1)NS(=O)(=O)C(CC(=O)O)CC(C)C (stereo not given in full)	3000	19200	19100	> 50000	
CNC(=O)[C@H](Cc1ccc(OC)cc1)NS(=O)(=O)C(CC(=O)NO)CC(C)C (stereo not given in full)	620	620	4100	770	
CNC(=O)[C@H](Cc1ccc(OC)cc1)NC(=O)[C@@H](CC(=O)O)CC(C)C	860	184	29400	336	
CCCCCCC(CC(=O)NO)S(=O)(=O)N[C@@H](Cc1ccc(OC)cc1)C(=O)NC (stereo not given in full)	430	210	4000	2300	
CNC(=O)[C@H](Cc1ccc(OC)cc1)NS(=O)(=O)C(CCc1ccccc1)CC(=O)NO (stereo not given in full)	550	1500	2200	640	
CNC(=O)[C@H](Cc1ccc(OC)cc1)NC(=O)[C@@H](CC(=O)NO)CC(C)C		< 10	< 10		
CCCCCCC(CC(=O)O)S(=O)(=O)N[C@@H](Cc1ccc(OC)cc1)C(=O)NC (stereo not given in full)	1300	290		11200	10
CNC(=O)[C@H](Cc1ccc(OC)cc1)NS(=O)(=O)C(CCc1ccccc1)CC(=O)O (stereo not given in full)	5300	9900		22400	10
